# Assays:
# Format in all cases: in vivo, mouse
# [1] = Time course of the physiological effect of DOCP treatment in wild type mice (body weight, blood electrolytes); conditions: for Change in BW (%) / Blood [Cl−] / Blood [HCO3−] / Blood [K+] / Blood [Na+]: wild type mice; for Change in BW (%): DOCP 1.7 mg i.m.
# Description: A primary goal of the study was to characterize the temporal changes in body weight, Na^+, K^+, and acid-base homeostasis during chronic mineralocorticoid excess. Body weight and blood electrolytes were measured over an eight day time course in untreated (control) mice and those treated with DOCP (1.7 mg) (Table 1).
# (§1) Mice were fed normal lab chow, given free access to water, and given an i.m. injection of 1.7 mg DOCP (Percorten V, Novartis Pharmaceuticals). For perfusion and expression studies, mice were sacrificed with Na^+ pentobarbital (i.p. 120 mg/kg) followed by cervical dislocation. For time course experiments, another group of animals were anesthetized with 3-4% isoflurane and aortic blood was collected into a heparinized syringe for immediate analysis of electrolytes and blood gases (Nova pHOx Plus analyzer, Nova Biomedical). For high K^+ diet studies, mice were given a normal, powdered diet (TD99131, Teklad) supplemented with KCl to equal 5% K^+ which was then made as a gel. Half of the mice were treated with DOCP. Blood and tissues were collected as in the time course experiments. For urinalysis experiments, mice were housed in metabolic cages for thirteen days and fed a normal gel diet with free access to a water bottle. On day five, mice were treated with DOCP as above. Urine and feces were collected daily. Urine electrolytes were measured on a clinical analyzer (Nova 16 analyzer, Nova Biomedical) and fecal electrolytes were measured on a digital flame photometer (Model 2655-00, Cole-Parmer).
# H^+,K^+-ATPase = test: H+,K+-ATPase-mediated H+ secretion (JH) in intercalated cells of microperfused inner cortical collecting ducts from DOCP-treated mice (BCECF-AM)
# Description: One likely mechanism for mineralocorticoid-induced changes in acid-base homeostasis was stimulation of renal H^+,K^+-ATPase activity in response to mineralocorticoid-induced K^+ deficits. Therefore, H^+,K^+-ATPase activity was assessed in inner cortical collecting ducts from control and DOCP-treated mice. Individual intercalated cells from microperfused collecting ducts were loaded with the pH sensitive fluorescent dye, BCECF-AM. The addition of inhibitors of the Na^+/H^+ exchanger and the H^+-ATPase allowed for the measurement of H^+,K^+-ATPase-mediated H^+ secretion (JH) in response to an acute intracellular acid load (NH4Cl). The overall rate of H^+,K^+-ATPase-mediated JH in intercalated cells from control mice was quite slow (˜15H^+/min) (FIG. 1).
# Additional experiments were conducted to identify which intercalated cell subtype was responsible for the DOCP-induced increase in H^+,K^+-ATPase mediated JH. Again, the rate of H^+,K^+-ATPase-mediated JH was measured in intercalated cells of inner cortical collecting ducts from control and DOCP-treated mice. At the end of the experiment, A- and B-type ICs were differentiated by peritubular Cl^− removal and return as has been described previously^12,13 The characteristic inverse responses of A- and B-type intercalated cells to Cl^− removal and return were observed (Table 2). […]
# Inner cortical collecting ducts were hand dissected at 4° C., transferred to a mounting chamber and perfused as described previously.^25 The ratiometric, pH sensitive dye, BCECF-AM (15 μM, Invitrogen) was added to the luminal perfusate for 10 minutes and fluorescence measurements were performed after dye de-esterification. […] Recovery rates were calculated from the linear portion of the pH, recovery phase starting with the lowest pH, achieved. The intrinsic buffering capacity was calculated from the formula βi=ΔHi/ΔpHi where ΔHi is the change in the calculated [NH4]i and ΔpHi the change in pHi during the acid loaded phase. Acid secretion rates (JH) were calculated from the formula JH=βi*ΔpH, (U/min) and expressed as [H^+]/min. […]
# HKα1 mRNA = test: Real time PCR of renal HKα1 mRNA expression in DOCP-treated mice; conditions: cortex, outer medulla and inner medulla, eight days after DOCP, normal diet
# From the text: The principal mechanism of mineralocorticoid action is through modulation of target gene transcription.^15 Therefore, the next experiments evaluated the effect of DOCP on renal HKα1 and HKα2 mRNA expression. Real time quantitative PCR was used to investigate changes in steady state mRNA levels of H^+,K^+-ATPase α subunits, HKα1 and HKα2, in cortex, outer medulla, and inner medulla of control and DOCP-treated mice.
# RNA was recovered from cortex, medulla, and inner medulla with TRIzol reagent (Invitrogen). RNA was treated with DNase 1 (Ambion DNA Free) and converted to cDNA using SuperScript III (Invitrogen). For real time quantitative PCR, 20 ng cDNA was used to quantify mRNA expression with TaqMan Gene Expression (Applied Biosystems) primer/probe sets for HKα1 (Atp4a, Mm00444423_m1), HKα2 (Atp12a, Mm0131809_m1), and β-actin (Actb, Mm00607939_s1). Cycle threshold (Ct) values were normalized to β-actin, and relative expression (control set to 100%) was calculated by the ΔΔCt method.^28
# [2] = Effect of high K+ (5%) diet on physiological response of wild type mice to DOCP treatment; conditions: eight days after DOCP
# Description: Deficits in K^+ homeostasis have long been known to stimulate H^+,K^+-ATPase activity and HKα subunit expression. […] For this experiment, mice were fed a high K^+ diet and then left untreated (control) or given DOCP treatment. Body weight and blood electrolytes were measured eight days after treatment and kidneys were collected for analysis of HKα, and HKα2 mRNA expression by real time PCR.
# as §1
smiles,measurement,setting,value
"CC(C)(C)C(=O)OCC(=O)[C@H]1CC[C@H]2[C@@H]3CCC4=CC(=O)CC[C@]4(C)[C@H]3CC[C@]12C [DOCP, desoxycorticosterone pivalate]",Change in BW (%),[1]; Day 2,0.06 ± 1.2 (7) %
same,Change in BW (%),[1]; Day 4,2.0 ± 1.2 (7) %
same,Change in BW (%),[1]; Day 6,"5.4 ± 1.4 (7)**^,† %"
same,Change in BW (%),[1]; Day 8,"6.1 ± 1.2 (7)**^,† %"
same,Blood [Cl−],[1]; Day 2 of DOCP,120 ± 1.8 (3) mM
same,Blood [HCO3−],[1]; Day 2 of DOCP,19 ± 0.87 (4) mM
same,Blood [K+],[1]; Day 2 of DOCP,3.5 ± 0.12 (4) mM
same,Blood [Na+],[1]; Day 2 of DOCP,150 ± 1.3 (3) mM
same,Blood [Cl−],[1]; Day 4 of DOCP,116 ± 0.95 (4) mM
same,Blood [HCO3−],[1]; Day 4 of DOCP,20 ± 1.2 (4) mM
same,Blood [K+],[1]; Day 4 of DOCP,3.5 ± 0.17 (4) mM
same,Blood [Na+],[1]; Day 4 of DOCP,153 ± 1.8 (4) mM
same,Blood [Cl−],[1]; Day 6 of DOCP,117 ± 0.35 (3) mM
same,Blood [HCO3−],[1]; Day 6 of DOCP,20 ± 0.53 (3) mM
same,Blood [K+],[1]; Day 6 of DOCP,2.9 ± 0.21 (3) mM
same,Blood [Na+],[1]; Day 6 of DOCP,153 ± 0.80 (3) mM
same,Blood [Cl−],[1]; Day 8 of DOCP,"111 ± 0.82 (3)*^,**^,†,‡ mM"
same,Blood [HCO3−],[1]; Day 8 of DOCP,23 ± 2.0 (3) mM
same,Blood [K+],[1]; Day 8 of DOCP,"2.8 ± 0.07 (3)*^,† mM"
same,Blood [Na+],[1]; Day 8 of DOCP,150 ± 0.41 (3) mM
same,decrease in blood [Cl−],"[1]; wild-type mice, eight days of DOCP treatment",approximately 7 mM
same,"increase in H+,K+-ATPase-mediated JH","H^+,K^+-ATPase; A-type intercalated cells, DOCP-treated versus control mice",approximately 60%
same,"rate of H+,K+-ATPase-mediated JH","H^+,K^+-ATPase; B type ICs, DOCP-treated versus control mice",not affected
same,"increase in H+,K+-ATPase-mediated JH","H^+,K^+-ATPase; intercalated cells from DOCP-treated mice (eight days) versus control",greater than 60%
same,HKα1 mRNA expression compared to control,HKα1 mRNA,not significantly altered
same,Blood [Cl−],[2],121 ± 1.30 mM
same,Blood [HCO3−],[2],18.2 ± 1.01 mM
same,Blood [K+],[2],4.30 ± 0.18 mM
same,Blood [Na+],[2],151 ± 0.88 mM
same,Body weight change,[2],-0.17 ± 0.27 g

# From patent US20140127235A1, “TARGETING HK alpha FOR CONTROLLING BLOOD PRESSURE AND REGULATING ELECTROLYTE BALANCE” (UNIVERSITY OF FLORIDA RESEARCH FOUNDATION, INC., priority 2011, published 2014)
